Data taken from US11377442B2, “Small molecule agonists and antagonists of NR2F6 activity” (ZANDER THERAPEUTICS, INC., priority 2016, dated 2022).
Like-named read-outs stand apart in the source and are kept apart here.

How the values were obtained:
Assay type in all cases: cell-based
HEK293 pGL4 = experiment: Firefly_pGL signal, cmpd/DMSO (pGL4 control cells); settings: Homo sapiens
Renilla = Renilla signal in NR2F6 agonist screening, cmpd/DMSO; settings: Renilla, F4
NR2F6 = target: T1, NR2F6 (Homo sapiens, UniProt P10588); experiment: NR2F6 agonist screening, Firefly signal cmpd/DMSO
T1 construct: expressed in transfected cells; also transient transfection
T1 sequence (P10588 1-404): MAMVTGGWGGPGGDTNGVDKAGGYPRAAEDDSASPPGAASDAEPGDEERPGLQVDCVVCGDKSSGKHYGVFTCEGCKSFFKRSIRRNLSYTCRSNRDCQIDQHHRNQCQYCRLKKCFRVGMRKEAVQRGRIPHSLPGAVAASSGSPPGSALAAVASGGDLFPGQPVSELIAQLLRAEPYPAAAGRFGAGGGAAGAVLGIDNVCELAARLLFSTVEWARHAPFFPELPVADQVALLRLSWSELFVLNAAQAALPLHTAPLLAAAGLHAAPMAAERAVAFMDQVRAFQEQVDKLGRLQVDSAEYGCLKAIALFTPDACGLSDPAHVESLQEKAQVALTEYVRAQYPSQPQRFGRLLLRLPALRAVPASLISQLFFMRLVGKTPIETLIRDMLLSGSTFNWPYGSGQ

NR2F6 LBD = target: T2, NR2F6 LBD (Homo sapiens, UniProt P10588); experiment: NR2F6 LBD transient transfection; settings: LBD
T2 construct: expressed in transfected cells
T2 sequence (P10588 165-393 limits assumed): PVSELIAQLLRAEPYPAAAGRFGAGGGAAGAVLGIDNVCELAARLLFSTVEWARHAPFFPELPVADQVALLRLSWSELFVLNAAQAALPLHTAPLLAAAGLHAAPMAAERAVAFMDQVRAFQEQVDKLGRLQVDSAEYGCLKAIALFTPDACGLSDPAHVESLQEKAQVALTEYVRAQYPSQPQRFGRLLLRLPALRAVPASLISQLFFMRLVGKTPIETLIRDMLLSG
In short: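 LBD-transfected cells treated at 40, 10, 2 and 0.5 μM (4 replicates); cytotoxicity measured in parallel, normalized to DMSO (0%) and zero signal (100%). Higher concentrations excluded where signal loss reflected toxicity.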

[1] = HEK293, 0.5 uM, pGL4, read-out: Firefly pGL4, cmpd/DMSO (mean)
[2] = HEK293, 2 uM, pGL4, read-out: Firefly pGL4, cmpd/DMSO (mean)
[3] = HEK293, 10 uM, pGL4, read-out: Firefly pGL4, cmpd/DMSO (mean)
[4] = HEK293, 40 uM, pGL4, read-out: Firefly pGL4, cmpd/DMSO (mean)
[5] = HEK293, pGL4, 1% FBS, 0.5 uM, read-out: Firefly, pGL4, 1% FBS, cmpd/DMSO (mean)
[6] = HEK293, pGL4, 1% FBS, 2 uM, read-out: Firefly, pGL4, 1% FBS, cmpd/DMSO (mean)
[7] = HEK293, pGL4, 1% FBS, 10 uM, read-out: Firefly, pGL4, 1% FBS, cmpd/DMSO (mean)
[8] = HEK293, pGL4, 1% FBS, 40 uM, read-out: Firefly, pGL4, 1% FBS, cmpd/DMSO (mean)
[9] = HEK293, pGL4, 10% FBS, 0.5 uM, read-out: Firefly, pGL4, 10% FBS, cmpd/DMSO (mean)
[10] = HEK293, pGL4, 10% FBS, 2 uM, read-out: Firefly, pGL4, 10% FBS, cmpd/DMSO (mean)
[11] = HEK293, pGL4, 10% FBS, 10 uM, read-out: Firefly, pGL4, 10% FBS, cmpd/DMSO (mean)
[12] = HEK293, pGL4, 10% FBS, 40 uM, read-out: Firefly, pGL4, 10% FBS, cmpd/DMSO (mean)
[13] = read-out: Renilla, F4, cmpd/DMSO (mean)
[14] = 1% FBS, read-out: Renilla, F4, 1% FBS, cmpd/DMSO (mean)
[15] = 10% FBS, read-out: Renilla, F4, 10% FBS, cmpd/DMSO (mean)

Compound: CC(C)CN[C@H]1CS(=O)(=O)C[C@@H]1S(=O)(=O)c1ccc(Cl)cc1 [Compound D120]
- fold induction at 0.5 µM (HEK293 pGL4; [1]): 1.4
- fold induction at 2 µM (HEK293 pGL4; [2]): 1.5
- fold induction at 10 µM (HEK293 pGL4; [3]): 3.7
- fold induction at 40 µM (HEK293 pGL4; [4]): 0.8
- fold induction at 0.5 µM (HEK293 pGL4; [5]): 1.5
- fold induction at 2 µM (HEK293 pGL4; [6]): 1.5
- fold induction at 10 µM (HEK293 pGL4; [7]): 2.8
- fold induction at 40 µM (HEK293 pGL4; [8]): 0.9
- fold induction at 0.5 µM (HEK293 pGL4; [9]): 1.1
- fold induction at 2 µM (HEK293 pGL4; [10]): 1.7
- fold induction at 10 µM (HEK293 pGL4; [11]): 2
- fold induction at 40 µM (HEK293 pGL4; [12]): 0.7
- fold induction at 0.5 µM (Renilla; [13]): 1
- fold induction at 2 µM (Renilla; [13]): 1.2
- fold induction at 10 µM (Renilla; [13]): 1.7
- fold induction at 40 µM (Renilla; [13]): 1.6
- fold induction at 0.5 µM (Renilla; [14]): 1
- fold induction at 2 µM (Renilla; [14]): 1.3
- fold induction at 10 µM (Renilla; [14]): 2.1
- fold induction at 40 µM (Renilla; [14]): 0.6
- fold induction at 0.5 µM (Renilla; [15]): 1
- fold induction at 2 µM (Renilla; [15]): 1.1
- fold induction at 10 µM (Renilla; [15]): 1.7
- fold induction at 40 µM (Renilla; [15]): 1.5
- Firefly F4, cmpd/DMSO (mean) (NR2F6; 0.5 uM): 1.3
- Firefly F4, cmpd/DMSO (mean) (NR2F6; 2 uM): 1.5
- Firefly F4, cmpd/DMSO (mean) (NR2F6; 10 uM): 5.1
- Firefly F4, cmpd/DMSO (mean) (NR2F6; 40 uM): 2.2
- F4, Firefly/Renilla for S/B(F4) > 3 (NR2F6; 1% FBS, 10 uM): 2.3
- Firefly, F4/pGL4 for S/B(F4) > 3 (NR2F6; 1% FBS, 10 uM): 1.7
- F4, Firefly/Renilla for S/B(F4) > 3 (NR2F6; 10% FBS, 10 uM): 2.1
- Firefly, F4/pGL4 for S/B(F4) > 3 (NR2F6; 10% FBS, 10 uM): 1.8
- Firefly, F4, 1% FBS, cmpd/DMSO (mean) (NR2F6; 1% FBS, 0.5 uM): 0.8
- Firefly, F4, 1% FBS, cmpd/DMSO (mean) (NR2F6; 1% FBS, 2 uM): 1.2
- Firefly, F4, 1% FBS, cmpd/DMSO (mean) (NR2F6; 1% FBS, 10 uM): 4.7
- Firefly, F4, 1% FBS, cmpd/DMSO (mean) (NR2F6; 1% FBS, 40 uM): 0.2
- Firefly, F4, 10% FBS, cmpd/DMSO (mean) (NR2F6; 10% FBS, 0.5 uM): 1.0
- Firefly, F4, 10% FBS, cmpd/DMSO (mean) (NR2F6; 10% FBS, 2 uM): 1.2
- Firefly, F4, 10% FBS, cmpd/DMSO (mean) (NR2F6; 10% FBS, 10 uM): 3.6
- Firefly, F4, 10% FBS, cmpd/DMSO (mean) (NR2F6; 10% FBS, 40 uM): 1.7
- Firefly LBD, cmpd/DMSO (mean) (NR2F6 LBD; 0.5 uM): 1.1
- Firefly LBD, cmpd/DMSO (mean) (NR2F6 LBD; 2 uM): 1.7
- Firefly LBD, cmpd/DMSO (mean) (NR2F6 LBD; 10 uM): 4.1
- Firefly LBD, cmpd/DMSO (mean) (NR2F6 LBD; 40 uM): 0.8

Compound: O=S1(=O)C[C@H](N2CCCC2)[C@@H](S(=O)(=O)c2ccc(Cl)cc2)C1 [Compound D122]
- fold induction at 0.5 µM (HEK293 pGL4; [1]): 1.3
- fold induction at 2 µM (HEK293 pGL4; [2]): 2.4
- fold induction at 10 µM (HEK293 pGL4; [3]): 2.3
- fold induction at 40 µM (HEK293 pGL4; [4]): 0.6
- fold induction at 0.5 µM (HEK293 pGL4; [5]): 1.1
- fold induction at 2 µM (HEK293 pGL4; [6]): 2.5
- fold induction at 10 µM (HEK293 pGL4; [7]): 2.6
- fold induction at 40 µM (HEK293 pGL4; [8]): 0.7
- fold induction at 0.5 µM (HEK293 pGL4; [9]): 0.9
- fold induction at 2 µM (HEK293 pGL4; [10]): 2.2
- fold induction at 10 µM (HEK293 pGL4; [11]): 3.7
- fold induction at 40 µM (HEK293 pGL4; [12]): 0.7
- fold induction at 0.5 µM (Renilla; [13]): 1.1
- fold induction at 2 µM (Renilla; [13]): 1.3
- fold induction at 10 µM (Renilla; [13]): 2.2
- fold induction at 40 µM (Renilla; [13]): 0.2
- fold induction at 0.5 µM (Renilla; [14]): 1.2
- fold induction at 2 µM (Renilla; [14]): 1.4
- fold induction at 10 µM (Renilla; [14]): 2.2
- fold induction at 0.5 µM (Renilla; [15]): 1
- fold induction at 2 µM (Renilla; [15]): 1
- fold induction at 10 µM (Renilla; [15]): 2.9
- Firefly F4, cmpd/DMSO (mean) (NR2F6; 0.5 uM): 1.6
- Firefly F4, cmpd/DMSO (mean) (NR2F6; 2 uM): 3.3
- Firefly F4, cmpd/DMSO (mean) (NR2F6; 10 uM): 6.8
- Firefly F4, cmpd/DMSO (mean) (NR2F6; 40 uM): 0.7
- F4, Firefly/Renilla for S/B(F4) > 3 (NR2F6; 1% FBS, 2 uM): 2.3
- Firefly, F4/pGL4 for S/B(F4) > 3 (NR2F6; 1% FBS, 2 uM): 1.3
- F4, Firefly/Renilla for S/B(F4) > 3 (NR2F6; 10% FBS, 10 uM): 3.9
- Firefly, F4/pGL4 for S/B(F4) > 3 (NR2F6; 10% FBS, 10 uM): 3.1
- Firefly, F4, 1% FBS, cmpd/DMSO (mean) (NR2F6; 1% FBS, 0.5 uM): 1.4
- Firefly, F4, 1% FBS, cmpd/DMSO (mean) (NR2F6; 1% FBS, 2 uM): 3.2
- Firefly, F4, 1% FBS, cmpd/DMSO (mean) (NR2F6; 1% FBS, 10 uM): 2.8
- Firefly, F4, 1% FBS, cmpd/DMSO (mean) (NR2F6; 1% FBS, 40 uM): 0.3
- Firefly, F4, 10% FBS, cmpd/DMSO (mean) (NR2F6; 10% FBS, 0.5 uM): 1.5
- Firefly, F4, 10% FBS, cmpd/DMSO (mean) (NR2F6; 10% FBS, 2 uM): 1.8
- Firefly, F4, 10% FBS, cmpd/DMSO (mean) (NR2F6; 10% FBS, 10 uM): 11
- Firefly, F4, 10% FBS, cmpd/DMSO (mean) (NR2F6; 10% FBS, 40 uM): 0.5
- Activity, cmpd/DMSO (NR2F6; Table 31): 6.6
- Firefly LBD, cmpd/DMSO (mean) (NR2F6 LBD; 0.5 uM): 1.2
- Firefly LBD, cmpd/DMSO (mean) (NR2F6 LBD; 2 uM): 2.5
- Firefly LBD, cmpd/DMSO (mean) (NR2F6 LBD; 10 uM): 3.1
- Firefly LBD, cmpd/DMSO (mean) (NR2F6 LBD; 40 uM): 0.6
